pIC50: −log10 of the molar value.

What all share (format): biochemical
The target of one test is T1, CK2 (Homo sapiens, UniProt P68400).
T1 construct: purchased Upstate (Charlottesville, Va.)
The experiment in a line: Broad selectivity panel, 32P incorporation. The following applies: 40 μM ATP, read-out: Percent inhibition CK2; for inhibition at 0.1 µM: 0.1 μM compound; for inhibition at 1 µM: 1 μM compound. The procedure, abridged:
(§1)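 Single-point inhibition at two concentrations (0.1 μM, 1 μM) in kinase reactions containing 40 μM ATP. Substrate-incorporated 32P is compared between compound-treated and buffer-control reactions and expressed as percent decrease.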

A further test relates to ROCK-II. As to the kind of experiment: Broad selectivity panel, 32P incorporation. The following applies: 40 μM ATP. The gist of the method:
as §1

The target in another test is T2, Lyn (Homo sapiens, UniProt P07948).
T2 construct: purchased Upstate (Charlottesville, Va.)
T2 sequence (P07948 whole entry, species assumed): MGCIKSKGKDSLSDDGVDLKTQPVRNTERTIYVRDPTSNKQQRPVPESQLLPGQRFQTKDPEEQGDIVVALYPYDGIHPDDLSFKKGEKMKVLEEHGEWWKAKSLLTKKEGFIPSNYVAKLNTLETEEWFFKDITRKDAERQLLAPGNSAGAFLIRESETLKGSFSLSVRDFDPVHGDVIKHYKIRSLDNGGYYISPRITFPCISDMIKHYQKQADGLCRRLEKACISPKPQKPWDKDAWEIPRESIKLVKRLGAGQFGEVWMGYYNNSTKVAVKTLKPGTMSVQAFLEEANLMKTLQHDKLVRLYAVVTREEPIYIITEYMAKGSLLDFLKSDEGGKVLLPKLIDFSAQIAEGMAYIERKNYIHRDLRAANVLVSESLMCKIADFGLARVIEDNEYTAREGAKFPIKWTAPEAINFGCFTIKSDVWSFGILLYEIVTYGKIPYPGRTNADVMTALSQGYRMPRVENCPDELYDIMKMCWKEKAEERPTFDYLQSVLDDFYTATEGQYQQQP
As to the kind of experiment: Broad selectivity panel, 32P incorporation. Conditions: 40 μM ATP, read-out: Percent inhibition Lyn; for inhibition at 0.1 µM: 0.1 μM compound; for inhibition at 1 µM: 1 μM compound. The procedure, abridged:
as §1

The target of another test is T3, ZAP-70 (Homo sapiens, UniProt P43403).
T3 construct: purchased Upstate (Charlottesville, Va.)
T3 sequence (P43403 1-619): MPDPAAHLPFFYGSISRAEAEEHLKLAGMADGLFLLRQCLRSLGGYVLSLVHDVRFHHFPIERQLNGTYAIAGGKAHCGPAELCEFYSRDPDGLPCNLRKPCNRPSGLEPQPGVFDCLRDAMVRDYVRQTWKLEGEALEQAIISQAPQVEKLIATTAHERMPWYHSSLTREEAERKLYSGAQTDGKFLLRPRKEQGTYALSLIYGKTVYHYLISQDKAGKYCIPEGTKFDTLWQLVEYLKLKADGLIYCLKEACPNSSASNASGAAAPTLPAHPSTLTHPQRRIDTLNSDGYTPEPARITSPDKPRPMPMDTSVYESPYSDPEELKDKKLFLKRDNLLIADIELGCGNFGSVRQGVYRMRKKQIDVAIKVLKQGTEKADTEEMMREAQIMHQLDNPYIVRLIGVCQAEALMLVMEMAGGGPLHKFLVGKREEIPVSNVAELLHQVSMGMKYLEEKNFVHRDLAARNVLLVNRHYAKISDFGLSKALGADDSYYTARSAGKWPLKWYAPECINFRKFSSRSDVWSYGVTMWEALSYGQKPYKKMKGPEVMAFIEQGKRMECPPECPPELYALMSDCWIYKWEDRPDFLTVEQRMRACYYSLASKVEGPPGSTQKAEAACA
As to the kind of experiment: Broad selectivity panel, 32P incorporation. Conditions: 40 μM ATP, read-out: Percent inhibition ZAP-70; for inhibition at 0.1 µM: 0.1 μM compound; for inhibition at 1 µM: 1 μM compound. The procedure, abridged: as §1

The next test relates to p70S6K. As to the kind of experiment: Broad selectivity panel, 32P incorporation. The following applies: 40 μM ATP. The procedure, abridged: as §1
The target in a further test is T4, JNK2α2 (Homo sapiens, UniProt P45984).
T4 construct: purchased Upstate (Charlottesville, Va.)
T4 sequence (P45984 whole entry): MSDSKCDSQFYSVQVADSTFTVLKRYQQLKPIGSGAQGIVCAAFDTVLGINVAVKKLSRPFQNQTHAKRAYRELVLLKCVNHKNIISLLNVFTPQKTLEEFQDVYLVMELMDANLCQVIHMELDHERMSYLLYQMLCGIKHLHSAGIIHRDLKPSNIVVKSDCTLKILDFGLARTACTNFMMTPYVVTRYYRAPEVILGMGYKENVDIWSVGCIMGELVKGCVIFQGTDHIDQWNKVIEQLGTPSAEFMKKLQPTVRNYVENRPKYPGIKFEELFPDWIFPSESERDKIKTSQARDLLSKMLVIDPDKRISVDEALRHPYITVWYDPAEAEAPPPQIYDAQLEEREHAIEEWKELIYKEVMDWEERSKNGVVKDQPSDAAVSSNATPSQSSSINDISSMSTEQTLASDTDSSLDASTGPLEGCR
As to the kind of experiment: Kinase selectivity, ATF2 phosphorylation ELISA. As for the experimental part:
(§2) All kinases and the substrate ATF2 are acquired from Upstate (Charlottesville, Va.). p38 MAP Kinases are recombinant human full-length proteins with an amino-terminal GST fusion, expressed in and purified from E. coli. ATF2 is a GST fusion protein containing amino acids 19-96 of human ATF2 expressed in E. coli. All proteins were aliquoted and stored at −80° C.
(§3) p38 MAP Kinase assays are performed using an assay buffer containing 25 mM HEPES, pH 7.5, 10 mM MgCl2, 2 mM DTT, 20 mM β-glycerophosphate, 0.1 mM Na3VO4, 40 μM ATP and 1.25 μM of ATF2, together with 6 ng of p38α protein, 12 ng p38β protein, 1.5 ng p38γ, or 0.4 ng JNK2α2. Compounds are serially diluted in DMSO and 2 μL of test compound at 25× final concentration is used. The vehicle control receives DMSO only. Test compounds are pre-incubated with 20 μl of enzyme in kinase buffer (25 mM HEPES, pH 7.5, 10 mM MgCl2, 2 mM DTT, 20 mM 3-glycerophosphate and 0.1 mM Na3VO4) at room temperature for 15 minutes. […] The reactions are incubated for 30 minutes at 37° C. and terminated by the addition of 18 μl of 200 mM EDTA. An ELISA method is used to measure the phosphorylation of ATF2 at Thr 69. High binding 96-well plates (Corning 3369) are coated with 50 μl of kinase reaction for 1 hour at 37° C. The coated plates are washed with 200 μl washing buffer (25 mM Tris HCl, pH 8.3, 192 mM glycine, 0.1% SDS and 0.05% Tween-20) three times. The plates are then washed three times with SuperBlock in TBS (Pierce, 37535). After blocking, plates are incubated with 50 μl of rabbit anti-phospho-ATF2 antibody (Cell Signaling, 9221 L, 1:500) for 30 minutes at 37° C. Plates are washed three times with washing buffer prior to incubation with 50 μl HRP-conjugated goat anti-rabbit antibody (Cell Signaling, 7074, 1:500) for 30 minutes at 37° C. Plates are then washed three times with washing buffer before incubation with 50 μl of Ultra TMB-ELISA (Pierce, 34028) for 8 minutes at room temperature. Finally, 50 μl of phosphoric acid (1 M) is added to stop reactions and plate absorbance is read at 450 nm on a SpectraMax 250 plate reader.
(§4) A selectivity panel is used to test the cross-reactivity of compounds of the invention with the β and γ isoforms of p38 MAP kinase, Src^p60 and JNK2α2. The p38β, p38γ, and JNK2α2 assays are described in Example 4. The Src^p60 assay measures the ability of compounds to inhibit Src^p60-catalyzed phosphorylation of a peptide substrate.
(In general: ELISA stands for enzyme-linked immunosorbent assay.)

A further test addresses T5, p38γ (Homo sapiens, UniProt P53778).
T5 construct: p38 MAP Kinases are recombinant human full-length proteins with an amino-terminal GST fusion; GST (N); purchased Upstate (Charlottesville, Va.); host or cells: E. coli
T5 sequence (P53778 1-367): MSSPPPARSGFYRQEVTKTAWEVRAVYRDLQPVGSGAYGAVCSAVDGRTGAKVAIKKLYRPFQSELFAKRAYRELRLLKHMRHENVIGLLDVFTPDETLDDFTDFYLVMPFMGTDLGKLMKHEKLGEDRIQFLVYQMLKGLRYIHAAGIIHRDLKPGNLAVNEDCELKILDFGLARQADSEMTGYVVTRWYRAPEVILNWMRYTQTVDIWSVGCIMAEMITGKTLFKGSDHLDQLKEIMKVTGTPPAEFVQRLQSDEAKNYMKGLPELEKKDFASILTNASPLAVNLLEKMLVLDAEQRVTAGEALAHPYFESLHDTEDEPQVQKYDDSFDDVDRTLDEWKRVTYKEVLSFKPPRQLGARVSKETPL
The experiment in a line: Kinase selectivity, ATF2 phosphorylation ELISA. As for the experimental part:
as §2, §3, §4

T1 sequence (P68400 whole entry): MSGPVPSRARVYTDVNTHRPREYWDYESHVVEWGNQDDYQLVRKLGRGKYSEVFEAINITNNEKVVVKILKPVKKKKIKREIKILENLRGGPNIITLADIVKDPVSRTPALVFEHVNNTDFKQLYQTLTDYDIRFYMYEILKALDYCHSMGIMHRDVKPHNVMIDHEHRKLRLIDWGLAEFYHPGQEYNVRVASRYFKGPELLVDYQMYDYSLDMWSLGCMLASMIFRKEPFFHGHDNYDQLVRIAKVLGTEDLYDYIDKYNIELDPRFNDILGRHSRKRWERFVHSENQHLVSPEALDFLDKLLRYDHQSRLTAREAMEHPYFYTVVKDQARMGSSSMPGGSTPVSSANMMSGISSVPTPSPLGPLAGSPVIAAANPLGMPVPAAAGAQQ
T1 sequence (P67870 whole entry partner): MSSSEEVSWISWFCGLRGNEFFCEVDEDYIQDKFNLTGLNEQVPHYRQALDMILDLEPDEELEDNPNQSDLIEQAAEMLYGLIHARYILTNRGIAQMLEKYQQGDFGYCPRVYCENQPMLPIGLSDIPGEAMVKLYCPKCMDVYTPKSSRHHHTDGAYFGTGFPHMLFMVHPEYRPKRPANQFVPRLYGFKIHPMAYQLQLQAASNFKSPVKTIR

As to `Fc1ccc(-c2nc3occn3c2-c2ccnc(NC3CCNCC3)n2)cc1` [CCLXXX], the inhibition – broadly, the change of the read-out against control, counted positive when it falls – at 0.1 µM is 10% on CK2, -24% on Lyn and -2% at ZAP-70. In addition, the inhibition at 1 µM was 32% on CK2, 27% on Lyn and 9% on ZAP-70. Moreover, the “Percent inhibition ROCK-II” value with ROCK-II (0.1 μM compound) was found to be 8; in the test with ROCK-II (1 μM compound), 10. Besides, the “Percent inhibition p70S6K” value with p70S6K (0.1 μM compound) came out at 7; with p70S6K (1 μM compound) it was 18.
In the case of `CN1[C@@H]2CC[C@H]1C[C@@H](Nc1nccc(-c3c(-c4ccc(F)cc4)nc4occn34)n1)C2` [CCLXXXI], the results for the inhibition at 0.1 µM at CK2, on Lyn and on ZAP-70 were 6%, -6% and 12%, respectively. Moreover, the values for the inhibition at 1 µM on CK2, on Lyn and at ZAP-70 were 16%, 4% and 30%, respectively. The entries for the “Percent inhibition ROCK-II” value with ROCK-II (0.1 μM compound) and in the test with ROCK-II (1 μM compound) were 10 and 9, respectively. The results for the “Percent inhibition p70S6K” value in the test with p70S6K (0.1 μM compound) and in the test on p70S6K (1 μM compound) were −16 and −10, respectively. Besides, the negative-log IC50 (pIC50) (in general, the negative decadic logarithm of the IC50, by convention in mol/L) against JNK2α2 is 6.12; at p38γ, less than 4.00.
For `CS(=O)(=O)N1CCC(Nc2nccc(-c3c(-c4ccc(F)cc4)nc4occn34)n2)CC1` [CCLXXIX], the inhibition at 0.1 µM at CK2 was 8%; at Lyn it was -7%; at ZAP-70, 13%. Also, the inhibition at 1 µM on CK2 was 4%; on Lyn, -13%; at ZAP-70 it was -1%. Also, the “Percent inhibition ROCK-II” value in the test on ROCK-II (0.1 μM compound) worked out at 10; in the test on ROCK-II (1 μM compound), 12. The “Percent inhibition p70S6K” value with p70S6K (0.1 μM compound) stood at 9; with p70S6K (1 μM compound), 10. The pIC50 at JNK2α2 is 7.63; against p38γ it was less than 4.00.
For `Fc1ccc(-c2nc3occn3c2-c2ccnc(N[C@@H]3CN4CCC3CC4)n2)cc1` [LXXI], the inhibition at 0.1 µM at CK2 was 3%; on Lyn it was 4%; on ZAP-70 it was -17%. The inhibition at 1 µM at CK2 came out at 12%; on Lyn, 10%; at ZAP-70, 4%. The “Percent inhibition ROCK-II” value is −7 with ROCK-II (0.1 μM compound) and 10 in the test with ROCK-II (1 μM compound). The “Percent inhibition p70S6K” value with p70S6K (0.1 μM compound) is recorded as −10; in the test on p70S6K (1 μM compound), 6. Moreover, the pIC50 was 5.80 against JNK2α2 and less than 3.28 against p38γ.
Take `Fc1ccc(-c2nc3occn3c2-c2ccnc(N[C@H]3CN4CCC3CC4)n2)cc1` [LXXXVII]: the values for the inhibition at 0.1 µM at CK2, at Lyn and at ZAP-70 were 4%, -32% and -51%, respectively. The inhibition at 1 µM was 4% on CK2, -13% at Lyn and -14% at ZAP-70. Further, the “Percent inhibition ROCK-II” value is 2 in the test with ROCK-II (0.1 μM compound) and 8 with ROCK-II (1 μM compound). Also, the “Percent inhibition p70S6K” value in the test on p70S6K (0.1 μM compound) is −4; in the test with p70S6K (1 μM compound), −1. The pIC50 was 5.98 against JNK2α2 and 4.23 against p38γ.
As to `Fc1ccc(-c2nc3occn3c2-c2ccnc(NC3CN4CCC3CC4)n2)cc1` (centres unmarked) [LXXXIV], the pIC50 at JNK2α2 was 5.65; at p38γ, less than 4.09.
As to `CC(=O)N1CCC(Nc2nccc(-c3c(-c4ccc(F)cc4)nc4occn34)n2)CC1` [CCLXXVIII], the inhibition at 0.1 µM at CK2 was 5%; on Lyn, -26%; at ZAP-70, -53%. The inhibition at 1 µM was 10% on CK2, -29% on Lyn and 18% on ZAP-70. Moreover, the “Percent inhibition ROCK-II” value in the test with ROCK-II (0.1 μM compound) was −6; with ROCK-II (1 μM compound) it was 6. Further, the “Percent inhibition p70S6K” value in the test with p70S6K (0.1 μM compound) is −11; with p70S6K (1 μM compound) it was 4.
Take `CN(C)CC(C)(C)CNc1nccc(-c2c(-c3ccc(F)cc3)nc3occn23)n1` [CXIX]: the inhibition at 0.1 µM on CK2 came to 9%; at Lyn it was 2%; on ZAP-70, 13%. For the same compound, the inhibition at 1 µM is 3% at CK2, -12% at Lyn and -9% on ZAP-70. In addition, the figures for the “Percent inhibition ROCK-II” value in the test on ROCK-II (0.1 μM compound) and in the test on ROCK-II (1 μM compound) were 16 and −8, respectively. Also, the “Percent inhibition p70S6K” value is 0 in the test on p70S6K (0.1 μM compound) and −5 with p70S6K (1 μM compound).

The values above are taken from patent US20070270418A1, “Inhibitors of P38 and Methods of Using the Same” (priority 2003, published 2007).
